Holding throughout (test): microbe, parasite or virus in culture
In test [1] the test system is K. pneumoniae strain 497 (MLST 11, No ESBL). It counts as cell-based. The conditions noted are these: Klebsiella pneumoniae, K. pneumoniae 497, read-out: MIC. The protocol: (§1) The efficacy of these new BLIs was also evaluated against 18 genetically diverse WGS-characterized collection of OXA-48-positive Enterobacterales recovered as part of the Carbapenem-resistant Enterobacterales Genome Database Project (https://genomes.cnag.cat/incredble) listed in Table S2 ([13]). Combinations of clinical isolates (five pairs of Klebsiella pneumoniae, two pairs of Enterobacter cloacae, and two pairs of E. coli) were chosen for analysis: (i) nine strains carrying ESBLs; and (ii) nine strains (genetically closer available strains) without ESBLs.
(§2) The MICs of each of the individual compounds (antibiotics or inhibitors) were also determined. The MICs were determined for the E. coli isogenic expressing OXA-48 (and both OXA-48 and CTX-M-14) to assess their activity against the carbapenemase; MICs were also determined for the 18 Enterobacterales clinical isolates in order to evaluate the new inhibitors against also their resistance concomitant mechanisms. The MICs were determined in triplicate experiments, and the EUCAST 13.0 clinical breakpoints were followed (http://www.eucast.org/clinical_breakpoints).
(§3) For comparative evaluation of the activity of each inhibitor alone against the carbapenemase OXA-48, all inhibitors (at 4 mg/L) were tested in the presence of a carbapenem (ertapenem, adequate substrate) and a cephalosporin (ceftazidime, poor substrate) as reporter substrates. This prevented any possible masking effect produced by the different partner antibiotics. These assays were also performed with isogenic transformants and clinical isolates.

Test [2] deals with K. pneumoniae strain 413 (MLST 147, ESBL). It counts as cell-based. The conditions noted are these: Klebsiella pneumoniae. The protocol: as §1, §2, §3
The test system of test [3] is E. coli strain 224 (MLST 127, No ESBL). The format is cell-based. The conditions noted are these: Escherichia coli, E. coli 224, read-out: MIC. The protocol:
as §1, §2, §3

For test [4], the system named is E. coli strain 177 (MLST 131, ESBL). It counts as cell-based. The conditions noted are these: Escherichia coli. The procedure: as §1, §2, §3
For test [5], the system named is K. pneumoniae strain 170 (MLST 307, No ESBL). The format is cell-based. The conditions noted are these: Klebsiella pneumoniae, K. pneumoniae 170, read-out: MIC. The protocol: as §1, §2, §3
Test [6] has as its system K. pneumoniae strain 71 (MLST 15, No ESBL). It counts as cell-based. Particulars: Klebsiella pneumoniae, K. pneumoniae 71, read-out: MIC. The procedure: as §1, §2, §3
Test [7] has as its system K. pneumoniae strain 23 (MLST 392, ESBL). It counts as cell-based. The conditions noted are these: Klebsiella pneumoniae. The procedure: as §1, §2, §3
Test [8] concerns K. pneumoniae strain 237 (MLST 147, No ESBL). It counts as cell-based. The conditions noted are these: Klebsiella pneumoniae, K. pneumoniae 237, read-out: MIC. The procedure:
as §1, §2, §3

Test [9] has as its system K. pneumoniae strain 194 (MLST 392, No ESBL). It counts as cell-based. Particulars: Klebsiella pneumoniae, K. pneumoniae 194, read-out: MIC. The protocol:
as §1, §2, §3

Another test relates to E. coli TG1 (OXA-48). It counts as cell-based, Escherichia coli. The conditions noted are these: Escherichia coli. The protocol: as §2, §3
In another test the test system is E. coli TG1. The format is cell-based. The conditions noted are these: Escherichia coli. The protocol:
as §2, §3

Another test concerns E. coli HB4 ΔompC/F. It counts as cell-based, Escherichia coli. The conditions noted are these: Escherichia coli.
From the text: (§4) The E. coli HB4 strain was used to gain a more complete perspective, by evaluating the involvement in resistance of a low permeability background with the carbapenemase OXA-48, as well as coproduction of an ESBL and the carbapenemase; thus, the ESBL CTX-M-14 and OXA-48 were cloned together and separately into E. coli HB4. The characteristics of these strains and transformants are summarized in Table S1, and the cloning procedures are outlined in the supplemental methods.
as §2, §3

The test system of test [10] is K. pneumoniae strain 238 (MLST 15, ESBL). The format is cell-based. Particulars: Klebsiella pneumoniae. The protocol: as §1, §2, §3
In test [11] the test system is E. coli strain 264 (MLST 131, No ESBL). The format is cell-based. Particulars: Escherichia coli, E. coli 264, read-out: MIC. The procedure:
as §1, §2, §3

Test [12] deals with E. coli strain 103 (MLST 10, ESBL). It counts as cell-based. The conditions noted are these: Escherichia coli. The protocol: as §1, §2, §3
Test [13] deals with E. cloacae strain 231 (MLST 171, No ESBL). The format is cell-based. Particulars: Enterobacter cloacae, E. cloacae 231, read-out: MIC. The protocol:
as §1, §2, §3

The test system of test [14] is K. pneumoniae strain 19 (MLST 11, ESBL). The format is cell-based. Particulars: Klebsiella pneumoniae. The procedure:
as §1, §2, §3

Test [15] deals with E. cloacae strain 235 (MLST 171, ESBL). It counts as cell-based. The conditions noted are these: Enterobacter cloacae. The procedure:
as §1, §2, §3

Test [16] deals with E. cloacae strain 281 (MLST 78, No ESBL). It counts as cell-based. Particulars: Enterobacter cloacae, E. cloacae 281, read-out: MIC. The procedure: as §1, §2, §3
Test [17] concerns K. pneumoniae strain 125 (MLST 307, ESBL). It counts as cell-based. Particulars: Klebsiella pneumoniae. The procedure: as §1, §2, §3
Test [18] relates to E. cloacae strain 272 (MLST 78, ESBL). It counts as cell-based. The conditions noted are these: Enterobacter cloacae. The protocol: as §1, §2, §3
Test [19] deals with E. coli HB4 ΔompC/F (OXA-48). It counts as cell-based, Escherichia coli. The conditions noted are these: Escherichia coli.
From the text: as §4, §2, §3

For test [20], the system named is E. coli HB4 ΔompC/F (CTX-M-14). The format is cell-based, Escherichia coli. Particulars: Escherichia coli.
From the text: as §4, §2, §3

Test [21] relates to E. coli HB4 ΔompC/F (CTX-M-14 + OXA-48). The format is cell-based, Escherichia coli. The conditions noted are these: Escherichia coli.
From the text: as §4, §2, §3

Setting [22] is: BL alone or BL/BLI: AVI, REL, TAN, DUR 4 mg/L, VAB, XER 8 mg/L, ZID, NAC 1:1.
Setting [23] is: ertapenem alone or with BLI at 4 mg/L.

In brackets after ≈: the same amount, converted by molar mass. Where two headings read alike, the source gives them in different places.

For the compound `CO/N=C(\C(=O)N[C@@H]1C(=O)N2C(C(=O)[O-])=C(C[N+]3(C)CCCC3)CS[C@H]12)c1csc(N)n1` [FEP, cefepime], the MIC in test [1] (setting [22]) is 0.5 µg/mL; in test [2], 128 µg/mL; in [3] (setting [22]), 0.5 µg/mL; in test [4] it was at least 256 µg/mL; in [5] (setting [22]), 0.25 µg/mL; in test [6] (setting [22]) it was 0.5 µg/mL. In addition, the MIC in test [7] is 32 µg/mL; in test [8] (setting [22]) it was 0.5 µg/mL; in test [9] (setting [22]), 0.25 µg/mL; against E. coli TG1 (OXA-48), at most 0.06 µg/mL; in the test with E. coli TG1 (setting [22]), at most 0.06 µg/mL; against E. coli HB4 ΔompC/F, 1 µg/mL (≈ 2.08 µM).

Take `C[C@@H](O)[C@H]1C(=O)N2C(C(=O)O)=C(SCCN=CN)C[C@H]12` [IMP, imipenem]: the MIC in test [1] (setting [22]) turned out to be 4 µg/mL; in test [2], 16 µg/mL; in test [10], 2 µg/mL; in test [3] (setting [22]) it was 2 µg/mL; in test [4], 2 µg/mL; in test [11] (setting [22]), 0.5 µg/mL. The MIC is 2 µg/mL in test [12]; 2 µg/mL in test [13] (setting [22]); 1 µg/mL in test [14]; at least 256 µg/mL in test [15]; 8 µg/mL in test [16] (setting [22]); 4 µg/mL in [5] (setting [22]). Besides, the MIC in [17] stood at 4 µg/mL; in test [6] (setting [22]) it was 2 µg/mL; in test [7], 4 µg/mL; in test [8] (setting [22]), 2 µg/mL; in test [18], 2 µg/mL; in [9] (setting [22]), 2 µg/mL. Moreover, the MIC against E. coli TG1 (OXA-48) is 0.12 µg/mL (≈ 0.401 µM); with E. coli TG1 (setting [22]), at most 0.06 µg/mL; in [19], 16 µg/mL (≈ 53.4 µM); in the test with E. coli HB4 ΔompC/F, at most 0.06 µg/mL; in test [20], 0.25 µg/mL (≈ 0.835 µM); in [21], 16 µg/mL (≈ 53.4 µM).

As to `O=C(NC1CCNCC1)[C@@H]1CC[C@@H]2CN1C(=O)N2OS(=O)(=O)O` [Relebactam, relebactam], the MIC in test [1] (β-lactamase inhibitor alone), in [2], in test [10], in test [3] (β-lactamase inhibitor alone), in test [4] and in test [11] (β-lactamase inhibitor alone) was at least 128 µg/mL each time. The MIC in test [12], in test [13] (β-lactamase inhibitor alone), in test [14], in test [15], in test [16] (β-lactamase inhibitor alone) and in test [5] (β-lactamase inhibitor alone) was at least 128 µg/mL each time. In addition, the MIC in [17], in test [6] (β-lactamase inhibitor alone), in test [7], in [8] (β-lactamase inhibitor alone), in [18] and in test [9] (β-lactamase inhibitor alone) was at least 128 µg/mL in each case. The MIC is 64 µg/mL (≈ 184 µM) with E. coli TG1 (OXA-48); 32 µg/mL (≈ 91.9 µM) in the test on E. coli TG1 (β-lactamase inhibitor alone); at least 128 µg/mL in test [19]; at least 128 µg/mL with E. coli HB4 ΔompC/F; at least 128 µg/mL in test [20]; at least 128 µg/mL in test [21].

Turning to `C[C@@H](O)[C@H]1C(=O)N2C(C(=O)O)=C(S[C@@H]3CN[C@H](C(=O)Nc4cccc(C(=O)O)c4)C3)[C@H](C)[C@H]12` [ERT, ertapenem], the MIC is 8 µg/mL in [1] (setting [23]); at least 256 µg/mL in [2]; 4 µg/mL in test [10]; 2 µg/mL in test [3] (setting [23]); 4 µg/mL in [4]; 4 µg/mL in test [11] (setting [23]). Besides, the MIC was 4 µg/mL in test [12]; 8 µg/mL in test [13] (setting [23]); 4 µg/mL in [14]; at least 256 µg/mL in [15]; 4 µg/mL in test [16] (setting [23]); 4 µg/mL in test [5] (setting [23]). For the same compound, the MIC in test [17] worked out at 8 µg/mL; in [6] (setting [23]) it was 8 µg/mL; in test [7], 4 µg/mL; in test [8] (setting [23]) it was 4 µg/mL; in test [18] it was 16 µg/mL; in test [9] (setting [23]), 4 µg/mL. The MIC in the test on E. coli TG1 (OXA-48) is 1 µg/mL (≈ 2.1 µM); in the test with E. coli TG1 (setting [23]), at most 0.06 µg/mL; in test [19], 32 µg/mL (≈ 67.3 µM); against E. coli HB4 ΔompC/F, 0.12 µg/mL (≈ 0.252 µM); in test [20], 0.5 µg/mL (≈ 1.05 µM); in test [21], 32 µg/mL (≈ 67.3 µM).

(Values after publication PMC11823609, “Advancements in the fight against globally distributed OXA-48 carbapenemase: evaluating the new generation of carbapenemase inhibitors” (Antimicrobial Agents and Chemotherapy, 2025).)
